This passage reports IC50 results from ChEMBL document CHEMBL1914362, “Highlights of marine invertebrate-derived biosynthetic products: their biomedical potential and possible production by microbial associants” (Bioorg Med Chem, 2011).

One assay has as its system HT-29. Nature of the assay: Cytotoxicity against human HT-29 cells. The format is functional, cell-based.
Assay [1] is described as follows: Irreversible inhibition of 20S proteasome.
Another assay deals with HCT-116. Description: Cytotoxicity against human HCT116 cells. The format is functional, cell-based.

Usually IC50 stands for the point on the concentration scale where inhibition reaches its midpoint. Low readings indicate inhibition by little substance, high ones a need for much substance. In turn, `C=CC(C)(C)c1[nH]cnc1/C=C1\NC(=O)[C@H](Cc2ccccc2)NC1=O` displayed a 50% inhibitory concentration (IC50) in the assay on HT-29 of 0.44 µM. This lies in the sub-micromolar range. Compound `CC(C)[C@H](O)[C@@]12NC(=O)[C@H](C)[C@@H]1OC2=O` [OMURALIDE] showed an IC50 in assay [1] of 0.049 µM. `C[C@@]12OC(=O)[C@]1([C@@H](O)[C@@H]1C=CCCC1)NC(=O)[C@@H]2CCCl` [MARIZOMIB] gave an IC50 in the assay on HCT-116 of 0.035 µM. In the assay on HT-29, `CC(C)(C)c1[nH]cnc1/C=c1\[nH]c(=O)/c(=C/c2ccccc2)[nH]c1=O` [PLINABULIN] had an IC50 of 0.018 µM.
